Data as given in patent US20210353624A1, “METHOD OF TREATING CANCER WITH TELOTRISAT OR A PRODRUG THEREOF” (TerSera Therapeutics LLC, priority 2020, published 2021).

Tests used:
Type in all cases: in vivo, human
u5-HIAA = experiment: Biomarker changes after TE initiation (TELEACE): u5-HIAA; settings: n=22
Procedure: (§1) This example provides the effects of telotristat ethyl treatment on selected patient biomarkers (i.e., u5-HIAA; CgA; 5-HT; and NT-proBNP) in the retrospective, single arm study of Example 4.
(§2) The average (SD) duration of documented TE treatment was 12.0 (7.3) months with a median (IQR) of 9.0 (6.8, 15.2) months. In many cases, a patient received a TE dosage of 250 mg three times per day.
(§3) The continuous measures of biomarker values pre- and post-TE initiation were described using mean, SD, median, and IQR. The biomarkers were assessed only among patients with complete biomarker assessment results in both pre-TE and post-TE initiation periods. A Wilcoxon signed rank test was used to calculate P-values for the mean change in biomarker value.
(§4) Patients with reported biomarker values below, at, or above normal range in pre-TE and post-TE initiation periods were described using proportions and frequencies. The biomarkers were assessed only among patients with complete biomarker assessment results in both pre-TE and post-TE initiation periods. McNemar's test was used to calculate P-values for the differences in paired proportions of patients with values above the upper limit of normal.
(§5) To evaluate the relationship between the change in biomarker values (i.e., u5-HIAA; CgA; 5-HT) and the change in tumor progression between the pre- and post-TE periods, Pearson's correlation coefficient was used to assess the correlation between biomarker assessments and tumor sizes and to derive the associated P-values. The correlations were assessed only among patients with complete biomarker assessment results in both pre-TE and post-TE initiation periods. The relationship between biomarker values and tumor sizes during pre-TE and post-TE initiation period was presented using scatterplots.
(§6) For the biomarker results below, the pre-TE initiation period is defined as 12 months before the index date (initiation of TE). The assessment closest to the index date during the pre-TE period was reported for each biomarker.
(§7) The post-TE initiation period is defined as a period from index date to the earlier of end of treatment with TE or date of chart abstraction. The assessment closest to the date of chart abstraction during the post-TE period was reported for each biomarker.
(§8) The data includes patients with reported biomarker values, units, and laboratory ranges during pre- and post-TE initiation periods. It excludes patients who had different biomarker units or laboratory ranges reported pre- and post-TE initiation.
(§9) The normal range was defined by reported laboratory lower limit of normal and upper limit of normal.
The values in Table 5-1 have been converted to mg/24 hours based on the following conversion rate: […]. The Wilcoxon signed rank test was used to calculate P-values for the mean change in biomarker values pre- and post-TE initiation.
(§10) Table 5-4 is based on patients who had complete biomarker assessment results (u5-HIAA: N=22; 5-HT: N=22) in both pre-TE and post-TE initiation periods. Correlation analysis was not conducted for CgA and NT-proBNP due to small sample sizes for CgA (n=15) and NT-proBNP (n=2). Pearson's correlation coefficient was used to assess the correlation between biomarker assessments and tumor sizes and to derive the associated P-values. Values have been converted to mg/24 hours based on the following conversion rate: […].

5-HT = experiment: Biomarker changes after TE initiation (TELEACE): 5-HT; settings: n=22
Procedure: as §1, §2, §3, §4, §5, §6, §7, §8, §9
The Wilcoxon signed rank test was used to calculate P-values for the mean change in biomarker values pre- and post-TE initiation.
as §10

[1] = Changes in carcinoid syndrome symptoms, body weight and ECOG Performance Status after TE initiation (TELEACE)
Excerpt: Time to tumor progression was defined as the time from telotristat ethyl initiation to the first documented tumor progression in the medical chart. […] Progression-free survival (PFS) was defined as the time from telotristat ethyl initiation to tumor progression or death. […] Physician-assessed changes in body weight, Eastern Cooperative Oncology Group (ECOG) Performance Status, and CS symptoms including diarrhea, flushing, abdominal pain, nausea and ascites were abstracted from medical charts before and after telotristat ethyl initiation. In order to evaluate the effect of telotristat ethyl treatment on secondary clinical outcomes, analyses were conducted in the overall population and in a subgroup of patients who had the same documented non-telotristat ethyl neuroendocrine tumor treatment before and after telotristat ethyl initiation. Descriptive statistics summarized patient demographic and clinical characteristics, and changes in body weight and ECOG Performance Status after telotristat ethyl treatment initiation. Kaplan-Meier analyses estimated median time to tumor progression and median PFS. Chi-square test evaluated changes in documented CS symptoms (improved vs same/worsened) before and after telotristat ethyl initiation. All analyses were performed using SAS version 9.4 (SAS Institute, Cary, N.C., USA). To evaluate the change in CS symptoms, weight, and ECOG performance status between the pre- and post-TE periods, patients with documented CS symptoms (i.e., abdominal pain, ascites, diarrhea, flushing, nausea) pre-TE initiation were described using proportions and frequencies. The change in documented CS symptoms, weight, and ECOG performance status after TE Initiation (i.e., improved/increased, stayed the same/remained unchanged, worsened/decreased) were also described using proportions and frequencies. P-values were calculated using Chi-square test for equal proportions for change in CS symptoms (i.e., proportion of patients with improved vs. stayed the same/worsened CS symptoms).

With CCOC(=O)[C@@H](N)Cc1ccc(-c2cc(O[C@H](c3ccc(Cl)cc3-n3ccc(C)n3)C(F)(F)F)nc(N)n2)cc1 [telotristat ethyl, (S)-ethyl 2-amino-3-(4-(2-amino-6-((R)-1-(4-chloro-2-(3-methyl-1H-pyrazol-1-yl)phenyl)-2,2,2-trifluoroethoxy)pyrimidin-4-yl)phenyl)propanoate] the “u5-HIAA Below normal range Post-TE, n (%)” value (u5-HIAA; pre-TE 0 (0)) was 0 (0) n (%), the “u5-HIAA At normal range Post-TE, n (%)” value (u5-HIAA; pre-TE 1 (4.5)) was 2 (9.1) n (%) and the “u5-HIAA Above normal range Post-TE, n (%)” value (u5-HIAA; pre-TE 21 (95.5), P=0.317) was 20 (90.9) n (%). The “u5-HIAA Measurement (mg/24 hours) Post-TE Initiation, Median (IQR)” value (u5-HIAA; pre-TE 42.0 (25.0, 65.0)) was 25.0 (16.0, 44.0) mg/24 hours, the “u5-HIAA Measurement (mg/24 hours) Post-TE Initiation, Mean ± SD” value (u5-HIAA; pre-TE 72.5 ± 98.0, P<0.001) was 43.6 ± 54.7 mg/24 hours and the “5-HT Measurement (ng/24 hours) Post-TE Initiation, Median (IQR)” value (5-HT; IQR 320.0, 700.0, pre-TE 459.5 (389.0, 701.0)) was 399.5 ng/24 hours. The “5-HT Below normal range Post-TE, n (%)” value (5-HT; pre-TE 0 (0)) was 0 (0) n (%), the “5-HT At normal range Post-TE, n (%)” value (5-HT; pre-TE 1 (4.5)) was 2 (9.1) n (%) and the “5-HT Above normal range Post-TE, n (%)” value (5-HT; pre-TE 21 (95.5), P=0.317) was 20 (90.9) n (%). The “5-HT Measurement (ng/24 hours) Post-TE Initiation, Mean ± SD” value (5-HT; pre-TE 648.9 ± 448.1, P=0.026) was 533.5 ± 329.2 ng/24 hours, the “Body weight and ECOG Performance Status after telotristat ethyl” value ([1]; overall population and same NET treatment subgroup) was “improved or unchanged for most patients” and the “patients with improvement in nausea after TE initiation” value ([1]; overall population, n=41) was 78%. For the same molecule, the “patients with improvement in abdominal pain after TE initiation” value ([1]; overall population, n=69) was 81%, the “patients with improvement in flushing after TE initiation” value ([1]; overall population, n=88) was 81% and the “patients with improvement in diarrhea after TE initiation” value ([1]; overall population, n=133) was 85%.
